From ChEMBL document CHEMBL4321863, “Exploring Structural Determinants of Inhibitor Affinity and Selectivity in Complexes with Histone Deacetylase 6” (J Med Chem, 2020) come the findings set out here.

Non-standard residues stand in square brackets, D forms with d. Residues, ends and D or L forms follow the SMILES beside them. *: point of attachment. 3Amb = NCc1cccc(C(=O)O)c1; 4Amb = NCc1ccc(C(=O)O)cc1; Cbz = O=C(OCc1ccccc1)*; NHOH = ON*

For assay [1], the target named is T1, Protein deacetylase HDAC6 (Homo sapiens, UniProt Q9UBN7).
T1 sequence (Q9UBN7 whole entry): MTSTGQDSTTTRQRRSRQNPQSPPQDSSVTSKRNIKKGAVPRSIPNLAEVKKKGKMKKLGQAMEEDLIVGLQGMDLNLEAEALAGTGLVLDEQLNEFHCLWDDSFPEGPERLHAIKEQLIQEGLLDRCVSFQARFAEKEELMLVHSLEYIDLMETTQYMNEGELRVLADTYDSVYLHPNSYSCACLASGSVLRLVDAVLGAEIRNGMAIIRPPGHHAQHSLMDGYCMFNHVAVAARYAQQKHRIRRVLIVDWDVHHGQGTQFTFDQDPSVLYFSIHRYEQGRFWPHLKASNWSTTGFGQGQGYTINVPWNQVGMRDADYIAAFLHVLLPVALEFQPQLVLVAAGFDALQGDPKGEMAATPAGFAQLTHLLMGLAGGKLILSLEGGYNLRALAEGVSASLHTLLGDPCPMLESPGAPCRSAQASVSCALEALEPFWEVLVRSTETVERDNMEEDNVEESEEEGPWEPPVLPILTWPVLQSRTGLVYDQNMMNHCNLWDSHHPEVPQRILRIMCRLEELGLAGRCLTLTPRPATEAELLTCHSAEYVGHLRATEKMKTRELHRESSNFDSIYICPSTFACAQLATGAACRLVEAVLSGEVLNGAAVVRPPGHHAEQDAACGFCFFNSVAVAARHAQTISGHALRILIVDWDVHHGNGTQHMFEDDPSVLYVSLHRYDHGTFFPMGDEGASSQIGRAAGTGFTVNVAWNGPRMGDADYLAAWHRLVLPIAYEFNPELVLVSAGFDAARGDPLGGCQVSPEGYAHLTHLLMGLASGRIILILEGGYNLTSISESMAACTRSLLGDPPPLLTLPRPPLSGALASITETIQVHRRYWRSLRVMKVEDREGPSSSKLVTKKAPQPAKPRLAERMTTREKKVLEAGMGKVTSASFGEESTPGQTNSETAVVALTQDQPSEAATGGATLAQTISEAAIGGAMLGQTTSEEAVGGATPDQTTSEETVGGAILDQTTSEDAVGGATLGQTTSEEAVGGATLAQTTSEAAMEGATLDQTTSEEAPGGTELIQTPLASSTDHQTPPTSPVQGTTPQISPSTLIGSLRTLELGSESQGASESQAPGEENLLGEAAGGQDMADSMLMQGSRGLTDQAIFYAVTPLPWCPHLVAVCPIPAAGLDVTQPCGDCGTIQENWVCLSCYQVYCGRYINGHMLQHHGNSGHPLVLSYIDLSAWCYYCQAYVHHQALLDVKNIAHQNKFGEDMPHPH
Put plainly: Inhibition of human N-terminal GST-tagged HDAC6 expressed in baculovirus infected insect cells using RHKKAc as substrate.

Assay [2] concerns the target T1, Protein deacetylase HDAC6. Kind of assay: Inhibition of HDAC6 CD2 domain (unknown origin).
Assay [3] deals with T1, Protein deacetylase HDAC6. Kind of assay: Inhibition of recombinant C-terminal FLAG-tagged HDAC6 (unknown origin) using Ac-NH-GGK(Ac)-AMC as substrate measured after 180 mins by fluorescence assay.

The IC50 is the midpoint of a concentration-inhibition curve. In the case of `O=C(NO)c1ccc(CNC(=O)c2cccnc2C(F)(F)F)cc1`, in assay [1], it took 17 nM to reach half-maximal inhibition (IC50).
Compound `CC1(C)[C@@H]2CC[C@@H](CNCc3ccc(C(=O)NO)cc3)[C@H]1C2` came in with an IC50 in assay [2] of 149 nM.
Turning to `O=C(CNC(=O)CNC(=O)OCc1ccccc1)NCc1ccc(C(=O)NO)cc1` (Cbz-Gly-Gly-[4Amb]-{NHOH}), the IC50 in assay [2] was 335 nM.
Still for that read-out and setting: then `CC(C)C[C@H](NC(=O)OCc1ccccc1)C(=O)N[C@@H](C)C(=O)NCc1cccc(C(=O)NO)c1` (Cbz-Leu-Ala-[3Amb]-{NHOH}), with 8420 nM.
In turn, `CC(C)C[C@H](NC(=O)OCc1ccccc1)C(=O)N[C@@H](C)C(=O)NCc1ccc(C(=O)NO)cc1` (Cbz-Leu-Ala-[4Amb]-{NHOH}) returned a 50% inhibitory concentration (IC50) in assay [1] of 314 nM.
Turning to `CN(C)Cc1ccc(S(=O)(=O)n2ccc(/C=C/C(=O)NO)c2)cc1` [RESMINOSTAT], in assay [3], the IC50 worked out at 72 nM.
